Drawing on ChEMBL document CHEMBL1139703, “Synthesis and structure-activity relationships of 3-phenyl-2-propenamides as inhibitors of glycogen phosphorylase a” (Bioorg Med Chem Lett, 2006), this text covers IC50 and Papp for 23 molecules.

For the first series, the target named is T1, Glycogen phosphorylase, liver form (Homo sapiens, UniProt P06737).
T1 sequence (P06737 whole entry): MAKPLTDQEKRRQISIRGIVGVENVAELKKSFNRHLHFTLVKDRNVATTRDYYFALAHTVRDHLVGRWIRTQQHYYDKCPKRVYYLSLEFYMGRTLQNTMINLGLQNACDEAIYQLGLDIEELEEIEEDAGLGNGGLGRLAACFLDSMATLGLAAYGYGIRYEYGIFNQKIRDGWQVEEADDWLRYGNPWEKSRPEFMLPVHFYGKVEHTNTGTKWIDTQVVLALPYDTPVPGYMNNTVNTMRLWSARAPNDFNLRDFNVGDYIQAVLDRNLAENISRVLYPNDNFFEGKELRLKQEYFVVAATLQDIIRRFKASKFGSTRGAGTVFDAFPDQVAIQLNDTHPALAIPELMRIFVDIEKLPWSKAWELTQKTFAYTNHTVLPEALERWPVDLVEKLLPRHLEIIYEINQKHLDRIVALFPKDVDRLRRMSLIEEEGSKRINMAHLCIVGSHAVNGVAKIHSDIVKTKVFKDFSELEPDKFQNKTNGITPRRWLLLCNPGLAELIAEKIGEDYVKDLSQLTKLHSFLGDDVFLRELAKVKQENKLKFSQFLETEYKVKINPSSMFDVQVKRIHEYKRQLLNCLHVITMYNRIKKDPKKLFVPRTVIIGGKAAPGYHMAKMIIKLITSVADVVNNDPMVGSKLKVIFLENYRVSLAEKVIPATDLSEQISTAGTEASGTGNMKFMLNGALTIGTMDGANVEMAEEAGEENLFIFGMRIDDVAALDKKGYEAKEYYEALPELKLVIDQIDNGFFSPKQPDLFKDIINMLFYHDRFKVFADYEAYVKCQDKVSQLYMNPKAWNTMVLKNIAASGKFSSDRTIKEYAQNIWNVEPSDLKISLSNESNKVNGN
The series can be described thus: Inhibition of human liver GPa in presence of glucose.
Settings: not given
Consider `O=C(/C=C/c1ccc(Cl)c(Cl)c1)NCCCCCN1CCC(C(=O)Nc2ccc(Cl)c(Cl)c2)CC1`, for which the IC50 is 0.63 µM.

As to `Cc1ccc(NC(=O)N2CCN(CCCCCNC(=O)/C=C/c3ccc(Cl)c(Cl)c3)CC2)cc1`, the IC50 stood at 100 µM. Same read-out and setting: then `O=C(/C=C/c1ccc(Cl)c(Cl)c1)NCCCCCN1CCN(C(=O)Nc2ccc(Cl)c(Cl)c2)CC1`, with 0.94 µM; and `O=C(/C=C/c1ccc(Cl)c(Cl)c1)NCCCCCCN1CCN(C(=O)Nc2ccc(Cl)c(Cl)c2)CC1`, with 0.44 µM. In the case of `O=C(/C=C/c1ccc(Cl)c(Cl)c1)NCCCCCN1CCCN(C(=O)Nc2ccc(Cl)cc2)CC1`, the IC50 was found to be 51 µM.

On to `O=C(/C=C/c1ccc(Cl)c(Cl)c1)NCCCCCN1CCN(C(=O)Nc2ccc3c(c2)OCO3)CC1`, for which the IC50 came to 70 µM. With `O=C(/C=C/c1ccc(Cl)c(Cl)c1)NCCCCN1CCN(C(=O)Nc2ccc(Cl)c(Cl)c2)CC1`, the IC50 stood at 0.71 µM. Still for that read-out and setting: then `O=C(/C=C/c1ccc(Cl)c(Cl)c1)NCCN1CCN(C(=O)Nc2ccc(Cl)c(Cl)c2)CC1`, with 90 µM. With `O=C(/C=C/c1ccc(Cl)c(Cl)c1)NCCCCCN1CCN(C(=O)Nc2cccc(Cl)c2)CC1`, the IC50 was found to be 51 µM. On the same count and under the same terms, the same measure for `Cc1ccc(NC(=O)N2CCCN(CCCCCNC(=O)/C=C/c3ccc(Cl)c(Cl)c3)CC2)cc1`: 100 µM; for `O=C(/C=C/c1ccc(Cl)c(Cl)c1)NCCCCCCN1CCCN(C(=O)Nc2ccc(Cl)c(Cl)c2)CC1`: 24 µM; for `O=C(/C=C/c1ccc(Cl)c(Cl)c1)NCCN1CCCN(C(=O)Nc2ccc(Cl)c(Cl)c2)CC1`: 100 µM. Consider `O=C(/C=C/c1ccc(Cl)c(Cl)c1)NCCCCCN1CCCN(C(=O)Nc2ccc(F)c(Cl)c2)CC1`, for which the IC50 worked out at 0.72 µM. As to `O=C(/C=C/c1ccc(Cl)c(Cl)c1)NCCCCCN1CCCN(C(=O)Nc2cccc(Cl)c2)CC1`, the IC50 was found to be 1.3 µM.

`O=C(/C=C/c1ccc(Cl)c(Cl)c1)NCCCN1CCN(C(=O)Nc2ccc(Cl)c(Cl)c2)CC1`: the IC50 is 0.32 µM. On the same count and under the same terms, then `O=C(/C=C/c1ccc(Cl)c(Cl)c1)NCCCCCN1CCN(C(=O)Nc2ccc(F)c(Cl)c2)CC1`, with 0.98 µM; and `COc1cccc(NC(=O)N2CCCN(CCCCCNC(=O)/C=C/c3ccc(Cl)c(Cl)c3)CC2)c1`, with 10 µM. `O=C(/C=C/c1ccc(Cl)c(Cl)c1)NCCCCCN1CCCN(C(=O)Nc2ccc(Cl)c(C(F)(F)F)c2)CC1`: the IC50 was 1.6 µM. `O=C(/C=C/c1ccc(Cl)c(Cl)c1)NCCCCCN1CCN(C(=O)Nc2ccc(Cl)cc2)CC1`: the IC50 was 100 µM.

Regarding `O=C(/C=C/c1ccc(Cl)c(Cl)c1)NCCCCCN1CCN(C(=O)Nc2ccc(Cl)c(C(F)(F)F)c2)CC1`, the IC50 stood at 51 µM.

For `COc1cccc(NC(=O)N2CCN(CCCCCNC(=O)/C=C/c3ccc(Cl)c(Cl)c3)CC2)c1`, the IC50 was 100 µM. `O=C(/C=C/c1ccccc1)NCCCCN1CCCN(C(=O)Nc2ccc(Cl)c(Cl)c2)CC1`: the IC50 was determined as 0.17 µM.

Regarding `O=C(/C=C/c1ccc(Cl)c(Cl)c1)NCCCCCN1CCCN(C(=O)Nc2ccc(Cl)c(Cl)c2)CC1`, the IC50 was found to be 0.47 µM.

A further series concerns the target T1, Glycogen phosphorylase, liver form. Nature of the series: Inhibition of human liver GPa in absence of glucose.
Settings: not given
The molecule `O=C(/C=C/c1ccc(Cl)c(Cl)c1)NCCCCCN1CCN(C(=O)Nc2ccc(Cl)c(Cl)c2)CC1` yielded an IC50 above 20 µM.

System in another series: not listed separately
Nature of the series: Permeability in artificial phospholipid bilayer membrane at pH 7.05. The series is classed as ADME. To be noted: not told, read-out: permeability.
For `O=C(/C=C/c1ccc(Cl)c(Cl)c1)NCCCCCN1CCC(C(=O)Nc2ccc(Cl)c(Cl)c2)CC1`, the Papp was determined as 9 ×10⁻⁶ cm/s.

What is called IC50 is the concentration that inhibits the measured activity by half.
